Here are results for 30 molecules from publication PMC7290285 (Viruses, 2020).

Structures are written as SMILES. pIC50: −log10 of the molar value. Structures can show the parent of a compound that is named as a salt. Where two headings read alike, the source gives them in different places.

As a reminder, the viability is a per cent measure of how many cells are alive, often set against a control. A lower viability goes with a greater loss of cells. The inhibition is the drop in the measured response relative to a control, in per cent. By pIC50 is commonly meant the negative decadic logarithm of the IC50, by convention in mol/L.

Data set [1] is described as follows: in vitro. The following applies: human.
The subject of data set [2] is lentiviral particles with wild-type HIV-1 reverse transcriptase (mCherry) in HEK293T-mCat1 cells. The experiment in a line: microbe, parasite or virus in culture. In kind it is cell-based.
The test system of data set [3] is lentiviral particles with AZT-resistant RT mutant (eGFP) in HEK293T-mCat1 cells. In words: microbe, parasite or virus in culture. Type of data set: cell-based, HIV-1.
In data set [4] the test system is luciferase lentiviral particles (wild-type RT) in HEK293T-mCat1 cells. The experiment in a line: Luciferase-based screening using HEK293T-mCat1 cells. The settings on record: for Identified as active in the luciferase assay / Relative inhibition [%] of luciferase (wild-type RT): 1 µM; for Identified as active in the luciferase assay: second LOPAC screen; for Relative inhibition [%] of luciferase (wild-type RT): normalized to 1 µM AZT = 100% and DMSO = 0%, HEK293T-mCat1, 3 days.

For data set [5], the system named is HEK293T-mCat1 cells. The following applies: 1 µM.
Data set [6] concerns PM1-mCat1 cells. The experiment in a line: Cytotoxicity determination (CellTiter-Glo) in PM1-mCat1 cell line. In kind it is cell-based, human. The settings on record: PM1-mCat1 viability relative to DMSO. For orientation: Cellular ATP, detected with luciferase, serves as a proxy for viable cell number.
Data set [7] deals with ecotropic pseudo-typed lentiviral particles (luciferase) in PM1-mCat1 cells. The experiment in a line: Luciferase-based viral integration assay using PM1-mCat1 cells. The settings on record: Human immunodeficiency virus 1, read-out: IC50 (in µM), viral integration assay.
For data set [8], the target named is mCherry-encoding lentiviral vectors (wild-type reverse transcriptase). In words: Flow-cytometry based inhibitor analysis, mCherry vector. In kind it is cell-based, HIV-1. The following applies: Figure S2, read-out: IC50 of the wild-type virus, FC-based analysis.
The subject of data set [9] is HIV. Further details: method as in earlier work. The following applies: read-out: reported IC50; cited from earlier work.
Data set [10] has as its target eGFP-encoding lentiviral vectors (mutant reverse transcriptase). The experiment in a line: Flow-cytometry based inhibitor analysis, eGFP vector. Type of data set: cell-based, HIV-1. The settings on record: Figure S2, read-out: IC50 of the AZT-resistant mutant, FC-based analysis.
Data set [11] deals with HIV-1-derived lentiviral particles (wild-type RT and AZT-resistant RT mutant) in HEK293T-mCat1 cells. Type of data set: cell-based. The following applies: 1 µM.
[12] abbreviates: Human immunodeficiency virus 1, 48 h; read-out: Relative inhibition [%] of mCherry (wild-type RT).
Where [13] appears, read: Human immunodeficiency virus 1, 48 h; read-out: Relative inhibition [%] of eGFP (mutant RT).

In turn, `Nc1nc2c(ncn2COCCO)c(=O)[nH]1` [Acyclovir] came in with a viability at 1 µM in [1] of 88%. Also, the inhibition at 1 µM in [2] (setting [12]) was 41%; in data set [3] (setting [13]), -33%.
Take `Cc1cn([C@H]2C[C@H](N=[N+]=[N-])[C@@H](CO)O2)c(=O)[nH]c1=O` [3‘-Azido-3‘-deoxythymidine]: in data set [4], the “Identified as active in the luciferase assay” value (“Identified as active” for short) is reported as “again identified” and the “Relative inhibition [%] of luciferase (wild-type RT)” value is 85%. The “Reduction of the luciferase signal” value in [4] (AZT control at 1 µM, HEK293T-mCat1) came to 50%. Further, the “Relative inhibition [%] of mCherry (wild-type RT)” value (“Relative inhibition [%] of mCherry” for short) in data set [2] (1 µM) was 73%. Also, the “Viability [%]” value in data set [5] turned out to be 89%. Moreover, in data set [3] (1 µM), the “Relative inhibition [%] of eGFP (mutant RT)” value is recorded as 38%.
With `Cl.Nc1ccn([C@@H]2O[C@H](CO)[C@@H](O)[C@@H]2O)c(=O)n1` [Cytosine-1-beta-D-arabino-furanoside hydrochloride], in data set [4], the “Identified as active” value is reported as “again identified” and the “Relative inhibition [%] of luciferase (wild-type RT)” value was found to be 211%. In data set [2] (1 µM), the “Relative inhibition [%] of mCherry” value was 98%. Also, in data set [5], the “Viability [%]” value is given as 38%. Besides, the “Relative inhibition [%] of eGFP (mutant RT)” value in data set [3] (1 µM) amounted to 95%.
As to `O=C(Nc1ccccc1N1CCCCC1)c1cc(S(=O)(=O)N2CCOCC2)ccc1Cl` [T6098586, ClC1=C(C=C(C=C1)S(=O)(=O)N1CCOCC1)C(=O)NC1=C(C=CC=C1)N1CCCCC1], the “Concentration beyond which the compound is toxic (viability drops below 80%)” value in [6] is on record as over 2 µM. The IC50 in [7] amounted to 1.78 µM.
On to `CC(=O)OCC(CCn1cnc2cnc(N)nc21)COC(C)=O` [Famciclovir], for which the viability at 1 µM in data set [1] turned out to be 7%. The inhibition at 1 µM in data set [2] (setting [12]) and in data set [3] (setting [13]) was 100% in each case.
For `Nc1nccc2c1ncn2[C@@H]1O[C@H](CO)[C@@H](O)[C@H]1O` [3-Deazaadenosine], in data set [2] (1 µM), the “Relative inhibition [%] of mCherry” value is listed as -25%. For the same molecule, the “Viability [%]” value in data set [5] worked out at 85%. Further, the “Relative inhibition [%] of eGFP (mutant RT)” value in data set [3] (1 µM) is reported as -34%.
Regarding `NC12CC3CC(CC(C3)C1)C2` [Amantadine hydrochloride], the viability at 1 µM in data set [1] was determined as 67%. The inhibition at 1 µM was 6% in data set [2] (setting [12]) and -29% in data set [3] (setting [13]).
`Oc1ccc(C2CNCCc3c2cc(O)c(O)c3Cl)cc1` (stereo not shown) [Fenoldopam bromide] came in with a viability at 1 µM in data set [1] of 73%. For the same molecule, the inhibition at 1 µM is -40% in [4] (Human immunodeficiency virus 1, 72 h, read-out: Relative inhibition [%] of luciferase (wild-type RT)); 61% in data set [2] (Human immunodeficiency virus 1, 48 h, read-out: Relative inhibition [%] of mCherry (wild-type RT)); 65% in data set [3] (Human immunodeficiency virus 1, 48 h, read-out: Relative inhibition [%] of eGFP (mutant RT)).
The molecule `Nc1ccn([C@H]2CC[C@@H](CO)O2)c(=O)n1` [2',3'-Dideoxycytidine] yielded a viability at 1 µM in data set [1] of 7%. For the same molecule, the inhibition at 1 µM in data set [2] (setting [12]) came to 100%; in data set [3] (setting [13]) it was 99%.
For `Nc1nc2c(ncn2CCOCP(=O)(O)O)c(=O)[nH]1` [PMEG hydrate], the pIC50 in [8] was 6.25; in data set [9], 6.70; in [10] it was 5.92. For the same molecule, the “Identified as active” value in data set [4] is on record as “again identified”. Further, the “Relative inhibition [%] of luciferase (wild-type RT)” value in data set [4] amounted to 156%. Moreover, the “Residual transduction rate, mCherry encoding lentiviral particles, microscopy” value in data set [2] turned out to be 30%. Further, the “Relative inhibition [%] of mCherry” value in data set [2] (1 µM) stood at 94%. Also, in data set [5], the “Viability [%]” value is recorded as 54%. Moreover, the “residual activity in the high-content screening” value in data set [11] stood at 5%. Besides, in data set [3], the “Residual transduction rate, eGFP encoding lentiviral particles, microscopy” value came out at 5%. Also, the “Relative inhibition [%] of eGFP (mutant RT)” value in data set [3] (1 µM) came to 70%.
Take `COc1ccc(OC)c(C2CCCN2C(=O)C2CC(=O)N(c3ccccc3)C2)c1` (stereo not shown) [T6517641, COC1=CC(C2CCCN2C(=O)C2CN(C(=O)C2)C2=CC=CC=C2)=C(OC)C=C1]: in data set [7], the IC50 stood at 6.83 µM.
Regarding `COc1ccc(NS(=O)(=O)c2cccc(C(=O)NCC(c3ccc(OC)cc3)N3CCCCC3)c2)cc1` (stereo not shown) [T6213020, COC1=CC=C(NS(=O)(=O)C2=CC(=CC=C2)C(=O)NCC(N2CCCCC2)C2=CC=C(OC)C=C2)C=C1], in data set [7], the IC50 came to 2.79 µM.
Turning to `NC(=O)c1ncn([C@@H]2O[C@H](CO)[C@@H](O)[C@H]2O)n1` [Ribavirin], the viability at 1 µM in data set [1] stood at 81%. Moreover, the inhibition at 1 µM in data set [2] (setting [12]) was -21%; in [3] (setting [13]), -73%.
As to `O=C(COc1ccccc1-c1ccccc1)NCc1ccccc1CN1CCOCC1` [T5781151, O=C(COC1=C(C=CC=C1)C1=CC=CC=C1)NCC1=C(CN2CCOCC2)C=CC=C1], the IC50 in data set [7] was found to be 6.94 µM.
For the molecule `c1csc(-c2csc3nc(CN4CCOCC4)nc(NCC4CCCO4)c23)c1` (stereo not shown) [T6061512, C(NC1=C2C(SC=C2C2=CC=CS2)=NC(CN2CCOCC2)=N1)C1CCCO1], the IC50 in [7] is 6.48 µM.
Consider `O=S(=O)(c1ccc(Oc2ncnc3scc(-c4ccc(F)cc4)c23)cc1)N1CCOCC1` [T5413794, FC1=CC=C(C=C1)C1=CSC2=C1C(OC1=CC=C(C=C1)S(=O)(=O)N1CCOCC1)=NC=N2], for which, in data set [7], the IC50 was determined as 6.91 µM.
On to `CC1CCN(c2nc(CN3CCOCC3)nc3scc(-c4cccs4)c23)CC1` [T5932815, CC1CCN(CC1)C1=C2C(SC=C2C2=CC=CS2)=NC(CN2CCOCC2)=N1], for which the IC50 in data set [7] is 2 µM.
Still for that read-out and setting: as for `COc1ccc(C2CCCN2C(=O)C2CC(=O)N(c3ccccc3F)C2)c(OC)c1` (stereo not shown) [T6496714, COC1=CC(OC)=C(C=C1)C1CCCN1C(=O)C1CN(C(=O)C1)C1=C(F)C=CC=C1], the figure is 2.44 µM; as for `O=S(=O)(c1ccc(CSc2ncnc3scc(-c4ccc(F)cc4)c23)o1)N1CCCC1` [T6366633, FC1=CC=C(C=C1)C1=CSC2=C1C(SCC1=CC=C(O1)S(=O)(=O)N1CCCC1)=NC=N2], 1.67 µM.
As to `Cc1c(O)cccc1C(=O)N[C@@H](CSc1ccccc1)[C@H](O)CN1C[C@H]2CCCC[C@H]2C[C@H]1C(=O)NC(C)(C)C` [Nelfinavir mesylate hydrate], the viability at 1 µM in [1] was determined as 26%. For the same molecule, the inhibition at 1 µM in [2] (setting [12]) is 90%; in data set [3] (setting [13]), 49%.
On to `O=C(Nc1ccccc1N1CCCC1)c1cc(S(=O)(=O)N2CCOCC2)ccc1F` [T6382120, FC1=C(C=C(C=C1)S(=O)(=O)N1CCOCC1)C(=O)NC1=C(C=CC=C1)N1CCCC1], for which the IC50 in [7] stood at 2.86 µM.
On to `CC(=O)c1ccc(NC(=O)CNc2ccccc2-c2ccccc2)cc1` [T5941648, CC(=O)C1=CC=C(NC(=O)CNC2=C(C=CC=C2)C2=CC=CC=C2)C=C1], for which the IC50 in data set [7] turned out to be 7.85 µM.
Same read-out and setting: next, `CCOc1ncccc1C(=O)OCc1nc(N)c2c(C)c(C)sc2n1` [T5776163, CCOC1=C(C=CC=N1)C(=O)OCC1=NC2=C(C(C)=C(C)S2)C(N)=N1]: 4.7 µM; `O=C(CSc1nc2ccccc2c(=O)n1Cc1ccco1)N1CCN(c2ccccc2)CC1` [T5344625, O=C(CSC1=NC2=C(C=CC=C2)C(=O)N1CC1=CC=CO1)N1CCN(CC1)C1=CC=CC=C1]: 1.72 µM; `Cc1ccccc1NC(=O)CNc1ccccc1-c1ccccc1` [T5947021, CC1=C(NC(=O)CNC2=C(C=CC=C2)C2=CC=CC=C2)C=CC=C1]: 5.61 µM.
In the case of `O=C(COc1ccccc1-c1ccccc1)NCC1CCCCC1` [T5339957, O=C(COC1=C(C=CC=C1)C1=CC=CC=C1)NCC1CCCCC1], in data set [7], the IC50 was found to be 6.88 µM.
Consider `Cc1ccc(-n2nnnc2Sc2nnnn2-c2ccccc2)c(C)c1` [T5595439, CC1=CC(C)=C(C=C1)N1N=NN=C1SC1=NN=NN1C1=CC=CC=C1], for which the IC50 in data set [7] is 2.98 µM.
For the molecule `CCC(C)c1ccc(S(=O)(=O)Nc2ccc(F)cc2C)cc1` (stereo not shown) [T5989159, CCC(C)C1=CC=C(C=C1)S(=O)(=O)NC1=C(C)C=C(F)C=C1], the IC50 in data set [7] amounted to 1.67 µM.
On the same count and under the same terms, as for `O=c1c2ccccc2nc(CN2CCOCC2)n1Cc1nc(-c2ccc(F)cc2)cs1` [T5938605, FC1=CC=C(C=C1)C1=CSC(CN2C(CN3CCOCC3)=NC3=C(C=CC=C3)C2=O)=N1], the figure is 8.71 µM; as for `COc1ccc(S(=O)(=O)N(Cc2cccc(C(F)(F)F)c2)c2ccccc2OC)cc1` [T5407044, COC1=CC=C(C=C1)S(=O)(=O)N(CC1=CC(=CC=C1)C(F)(F)F)C1=C(OC)C=CC=C1], 4.11 µM.
